# Measurements: US8835390B2, “Modulation of osteoclast differentiation” (Osteobuild Ltd., priority 2005, dated 2014)
# What was measured:
# [1] = system: bone marrow cells (BMMs); assay: Methylene blue uptake; format: cell-based, mouse; details: FIG. 5
# Protocol: Bone marrow cells (BMMs) were prepared from the long bones of 7-9 week old BALB/c male mice. Primary BMMs were prepared by flushing mouse femurs and tibias with α-MEM. Cells were cultured in Petri dishes, in complete α-MEM, supplemented with 10% CMG14-12 culture supernatant, which served as a source of M-CSF. After 3 days of culture, plates were washed 3 to 4 times with PBS to remove non-adherent cells. Adherent cells were removed with trypsin-EDTA solution, centrifuged and resuspended in a fresh medium. Murine macrophage-like RAW264.7 cell line was maintained in RPMI 1640 medium supplemented with 10% fetal calf serum (FCS) in the presence of antibiotics (penicillin and streptomycin). Cells were cultured at 37° C. incubator in a humidified atmosphere with 5% CO2, and media were changed every other day. BMMs (7×10^3/well in α-MEM containing 10% FCS and supernatant from CMG14-12 [1:20]) or RAW264.7 cells (3×10^3/well in RPMI-1640 containing 10% FCS) were incubated in 96-well plates (0.2 ml/well). […] On day 3, medium was changed and on day 5, osteoclast formation was evaluated (see below).
# Cells were seeded as for the osteoclast differentiation assay (see above). Monolayers were fixed and methylene blue uptake was measured as described [Goldman, R., and Bar-Shavit, Z. (1979) J. Natl. Cancer Inst. […]
# [2] = system: osteoclast lineage cells (osteoclasts and their mononuclear precursors); assay: RANKL-induced osteoclast differentiation (osteoclast number by TRAP staining, cell size by surface area measurement); format: cell-based, mouse; details: for osteoclast lineage cells size: phloretin 50 μM added for the last day, mean ± SEM of at least 50 cells
# Protocol: Bone marrow cells (BMMs) were prepared from the long bones of 7-9 week old BALB/c male mice. Primary BMMs were prepared by flushing mouse femurs and tibias with α-MEM. Cells were cultured in Petri dishes, in complete α-MEM, supplemented with 10% CMG14-12 culture supernatant, which served as a source of M-CSF. After 3 days of culture, plates were washed 3 to 4 times with PBS to remove non-adherent cells. Adherent cells were removed with trypsin-EDTA solution, centrifuged and resuspended in a fresh medium. Murine macrophage-like RAW264.7 cell line was maintained in RPMI 1640 medium supplemented with 10% fetal calf serum (FCS) in the presence of antibiotics (penicillin and streptomycin). Cells were cultured at 37° C. incubator in a humidified atmosphere with 5% CO2, and media were changed every other day. BMMs (7×10^3/well in α-MEM containing 10% FCS and supernatant from CMG14-12 [1:20]) or RAW264.7 cells (3×10^3/well in RPMI-1640 containing 10% FCS) were incubated in 96-well plates (0.2 ml/well). To induce cells to differentiate into osteoclasts, bacterially-produced recombinant RANKL was added at the time of plating. On day 3, medium was changed and on day 5, osteoclast formation was evaluated (see below). A commercial kit (Cat. No. 387-A, Sigma) was used according to the manufacturer instructions. TRAP-positive cells containing three or more nuclei were scored as osteoclasts. The surface area occupied by osteoclasts and their precursors was quantified using a computerized image analysis system (Olympus BX50, DP50, software: ImagePro Plus, Media Cybernetics). In the following assay the significance of the activity of AQP-9 to osteoclast differentiation was determined.
smiles,measurement,setting,value
"O=C(CCc1ccc(O)cc1)c1c(O)cc(O)cc1O [Phloretin, 2′,4′,6′-Trihydroxy-3-(4-hydroxyphenyl)-propiophenone]",effect on methylene blue uptake,[1]; RANKL-treated cells,marked inhibition
same,effect on methylene blue uptake,[1]; mononuclear precursors (BMMs grown in the absence of RANKL),No effect
same,osteoclast lineage cells size,[2]; +RANKL for 5 days,23722 ± 4351 μm^2
same,effect on osteoclast number,"[2]; +RANKL for 5 days, phloretin added for the last day, FIG. 4A-4D",dramatic reduction
same,effect on osteoclast size,"[2]; +RANKL for 5 days, phloretin added for the last day, FIG. 4A-4D, Table 3",dramatic reduction
same,effect on number of the mononuclear precursors,[2]; cells not treated with RANKL,did not exhibit a significant effect
same,effect on size of the mononuclear precursors,[2]; cells not treated with RANKL,did not exhibit a significant effect
same,osteoclast lineage cells size,[2]; −RANKL (mononuclear precursors),267 ± 6 μm^2
